Laboratory results as given in patent US9670231B2, “Fused tricyclic amide compounds as multiple kinase inhibitors” (BEIGENE, LTD., priority 2013, dated 2017).

What was measured:
Assay type in all cases: biochemical
wild type B-Raf = wild type B-Raf (Homo sapiens (Human), UniProt P15056); assay: WT BRaf IC50 assay, TR-FRET; parameters: Braf-WT Km ATP, % at 100 nM: scale not given here; details: for IC50: Km ATP ([…] ATP), read-out: IC50 Braf-WT Km ATP; for Braf-WT Km ATP, % at 100 nM: at 100 nM compound
wild type B-Raf, sequence (P15056 whole entry): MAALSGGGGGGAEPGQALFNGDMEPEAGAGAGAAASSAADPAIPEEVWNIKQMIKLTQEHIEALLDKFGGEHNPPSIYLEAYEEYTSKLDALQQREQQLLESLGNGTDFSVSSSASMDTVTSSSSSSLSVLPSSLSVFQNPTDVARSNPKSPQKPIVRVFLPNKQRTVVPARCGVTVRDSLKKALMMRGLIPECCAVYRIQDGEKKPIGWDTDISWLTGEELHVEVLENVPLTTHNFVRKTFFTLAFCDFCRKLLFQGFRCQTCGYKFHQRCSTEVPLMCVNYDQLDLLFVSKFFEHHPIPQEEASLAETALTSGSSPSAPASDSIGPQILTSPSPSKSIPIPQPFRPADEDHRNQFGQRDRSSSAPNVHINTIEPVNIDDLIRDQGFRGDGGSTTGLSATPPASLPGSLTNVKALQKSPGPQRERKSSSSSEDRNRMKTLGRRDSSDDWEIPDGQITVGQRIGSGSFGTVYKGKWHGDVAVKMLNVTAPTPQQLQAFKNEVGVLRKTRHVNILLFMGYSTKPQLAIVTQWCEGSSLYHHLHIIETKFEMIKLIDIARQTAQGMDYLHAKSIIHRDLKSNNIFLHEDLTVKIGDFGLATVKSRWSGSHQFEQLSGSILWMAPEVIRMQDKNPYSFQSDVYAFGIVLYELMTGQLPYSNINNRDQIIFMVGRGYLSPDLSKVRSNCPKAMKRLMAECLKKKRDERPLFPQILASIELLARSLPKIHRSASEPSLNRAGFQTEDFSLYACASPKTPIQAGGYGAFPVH
Method: WT BRaf IC50 Assay Protocol
Compounds disclosed herein were tested against wild type B-Raf (PV3848, from Invitrogen) in a time-resolved fluorescence energy transfer assay. […] The enzyme was incubated with the compounds disclosed herein at room temperature for 120 minutes and the reactions were initiated by the addition of ATP and GST-MEK1. After incubating at room temperature for 60 minutes, an equal volume of stop buffer containing 25 mM Tris pH7.4, 400 mM KF, 50 mM EDTA, 0.1% BSA, 0.01% Triton X-100, 1 test of Eu3+Cryptate-conjugated rabbit polyclonal antibody anti-Phospho MEK1/2 (Ser217/221) and 1 test of d2-conjugated mouse monoclonal antibody anti-glutathione S-transferase was added to stop the reactions. Plates were sealed and incubated at room temperature for 1.5 hours, and then the TR-FRET signals were read on BMG PHERAstar FS instrument. The IC50 for each compound was calculated by non linear regression by Graphpad Prism software.

B-Raf (V600E) = B-Raf (V600E) (Homo sapiens (Human), UniProt P15056, V600E); assay: Raf IC50 assay, TR-FRET, B-Raf (V600E); details: 0.1 mM ATP; read-out: IC50 BRAF-V600E
B-Raf (V600E), sequence (P15056 whole entry V600E): as the sequence (P15056 whole entry) above, with V600E counted along it
Method: The enzyme was incubated with the compounds disclosed herein at room temperature for 60 minutes and the reactions were initiated by the addition of ATP and GST-MEK1. After reaction at room temperature for 60 minutes, an equal volume of stop/detection solution was added according to the manufacture's instruction (CisBio Bioassays). […] The IC50 for each compound was derived from fitting the dose-response % inhibition data to the four-parameter logistic model by Graphpad Prism software.

C-Raf (Y340D/Y341D) = C-Raf (Y340D/Y341D) (Homo sapiens (Human), UniProt P04049, Y340D/Y341D); assay: Raf IC50 assay, TR-FRET, C-Raf (Y340D/Y341D); details: 0.1 mM ATP
C-Raf (Y340D/Y341D), sequence (P04049 whole entry Y340D/Y341D): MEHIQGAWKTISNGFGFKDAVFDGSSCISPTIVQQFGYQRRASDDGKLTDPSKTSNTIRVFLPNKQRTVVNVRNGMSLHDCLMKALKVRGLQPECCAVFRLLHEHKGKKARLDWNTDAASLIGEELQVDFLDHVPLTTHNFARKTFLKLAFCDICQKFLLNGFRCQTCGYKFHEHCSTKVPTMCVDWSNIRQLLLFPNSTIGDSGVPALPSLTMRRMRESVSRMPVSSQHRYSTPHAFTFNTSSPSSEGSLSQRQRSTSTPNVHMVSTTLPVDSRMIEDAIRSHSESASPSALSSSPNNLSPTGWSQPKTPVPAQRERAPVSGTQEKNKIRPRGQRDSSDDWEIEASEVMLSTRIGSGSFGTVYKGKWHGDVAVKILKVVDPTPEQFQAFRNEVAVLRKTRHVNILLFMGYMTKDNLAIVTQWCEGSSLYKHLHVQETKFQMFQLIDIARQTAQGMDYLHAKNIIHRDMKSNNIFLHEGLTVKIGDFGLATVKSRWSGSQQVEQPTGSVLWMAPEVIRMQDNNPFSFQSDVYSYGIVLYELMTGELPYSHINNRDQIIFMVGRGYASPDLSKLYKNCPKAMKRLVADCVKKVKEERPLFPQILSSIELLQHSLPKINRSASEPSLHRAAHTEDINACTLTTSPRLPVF
Method: Compounds disclosed herein were tested against B-Raf (V600E) (PV3849, from Invitrogen) or C-Raf (Y340D/Y341D) (PV3805, from Invitrogen) in a time-resolved fluorescence energy transfer assay. The assay was carried out in reactions (10 μL) containing 0.0625 nM B-Raf or 0.5 nM C-Raf, 25 mM Tris pH7.4, 10 mM MgCl2, 0.5 mM EGTA, 0.5 mM Na3VO4, 5 mM beta-glycerophosphate, 0.01% Triton X-100, 2.5 mM DTT, 0.1% BSA, 0.1 mM ATP, 13.7 nM GST-tagged MEK1 (Full-length protein with K97R mutation, recombinant protein purified from bacterial expression system) and 0-5 μM compounds disclosed herein (final concentration of 1% DMSO). The enzyme was incubated with the compounds disclosed herein at room temperature for 60 minutes and the reactions were initiated by the addition of ATP and GST-MEK1. After reaction at room temperature for 60 minutes, an equal volume of stop/detection solution was added according to the manufacture's instruction (CisBio Bioassays). The stop/detection solution contained Eu^3+ cryptate-conjugated anti-phospho MEK1/2 (Ser217/221) rabbit polyclonal antibody and d2-conjugated anti-GST mouse monoclonal antibody in buffer containing 25 mM Tris pH7.4, 400 mM KF, 50 mM EDTA, 0.01% BSA and 0.01% Triton X-100. Plates were sealed and incubated at room temperature for 2 hours, and the TR-FRET signals (ratio of fluorescence emission at 665 nm over emission at 620 nm with excitation at 337 nm wavelength) were recorded on a PHERAstar FS plate reader (BMG Labtech). Phosphorylation of MEK1 led to the binding of anti-phospho-MEK1/2 antibody to GST-MEK1 protein that place fluorescent donor (Eu^3+ crypate) in close proximity to the accepter d2 on the anti-GST antibody, thus resulting in a high degree of fluorescence resonance energy transfer from the donor fluorophore (at 620 nm) to the acceptor fluorophore (at 665 nm). […] The IC50 for each compound was derived from fitting the dose-response % inhibition data to the four-parameter logistic model by Graphpad Prism software.

WT EGFR kinase domain = WT EGFR kinase domain (Homo sapiens (Human), UniProt P00533); assay: EGFR enzymatic assay, TR-FRET, WT EGFR
WT EGFR kinase domain, sequence (P00533 669-1210): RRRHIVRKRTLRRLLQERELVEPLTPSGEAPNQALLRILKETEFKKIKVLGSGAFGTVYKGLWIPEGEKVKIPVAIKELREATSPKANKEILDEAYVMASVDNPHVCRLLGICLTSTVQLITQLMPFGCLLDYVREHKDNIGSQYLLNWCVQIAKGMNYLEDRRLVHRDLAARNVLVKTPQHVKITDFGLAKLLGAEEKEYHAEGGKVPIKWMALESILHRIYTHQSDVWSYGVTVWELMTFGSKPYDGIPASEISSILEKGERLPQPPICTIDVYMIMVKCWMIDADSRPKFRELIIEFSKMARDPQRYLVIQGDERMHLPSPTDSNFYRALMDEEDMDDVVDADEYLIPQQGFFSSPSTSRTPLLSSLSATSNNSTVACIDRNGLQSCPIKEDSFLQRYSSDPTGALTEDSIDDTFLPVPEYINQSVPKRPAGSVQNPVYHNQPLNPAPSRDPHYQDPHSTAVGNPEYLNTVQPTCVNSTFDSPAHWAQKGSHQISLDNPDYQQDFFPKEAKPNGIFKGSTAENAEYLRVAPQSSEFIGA
Method: (§1) Compounds disclosed herein were tested against WT EGFR kinase domain (aa.669-1210, Carna Biosciences, 08-115), EGFR T790M/L858R kinase domain (aa.669-1210, Carna Biosciences, 08-510) and EGFR L858R kinase domain (aa.669-1210, Carna Biosciences, 08-502) in assays based on time-resolved fluorescence-resonance energy transfer methodology. The assay was carried out in 384-well low volume black plate in a reaction mixture containing EGFR kinases, 20 LM for EGFR WT and T790M/L858R, and 125 LM for EGFR L858R), biotin-TK substrate and 0-5 LM compounds in buffer containing 50 mM HEPES pH7.5, 10 mM MgCl2, 1 mM EGTA, 0.01% Brij-35, 2.5 mM DTT, 0.1% BSA. The kinase was incubated with the compounds disclosed herein at room temperature for 120 minutes and the reaction was initiated by the addition of ATP and biotin-TK substrate. After reaction at room temperature for 30 minutes, an equal volume of stop/detection solution was added according to the manufacture's instruction (CisBio Bioassays). The stop/detection solution contained TK-Antibody-Cryptate and Streptavidin-XL665 in buffer containing 25 mM Tris pH7.4, 400 mM KF, 50 mM EDTA, 0.01% BSA, 0.01% Triton X-100. Plates were sealed and incubated at room temperature for 1 hour, and the TR-FRET signals were read on BMG PHERAstar FS instrument. The IC50 of an inhibitor was derived from fitting the % inhibition data at each compound concentration to the four-parameter logistic equation by Graphpad Prism software.

EGFR L858R kinase domain = EGFR L858R kinase domain (Homo sapiens (Human), UniProt P00533, L858R); assay: EGFR enzymatic assay, TR-FRET, EGFR L858R
EGFR L858R kinase domain, sequence (P00533 669-1210 L858R): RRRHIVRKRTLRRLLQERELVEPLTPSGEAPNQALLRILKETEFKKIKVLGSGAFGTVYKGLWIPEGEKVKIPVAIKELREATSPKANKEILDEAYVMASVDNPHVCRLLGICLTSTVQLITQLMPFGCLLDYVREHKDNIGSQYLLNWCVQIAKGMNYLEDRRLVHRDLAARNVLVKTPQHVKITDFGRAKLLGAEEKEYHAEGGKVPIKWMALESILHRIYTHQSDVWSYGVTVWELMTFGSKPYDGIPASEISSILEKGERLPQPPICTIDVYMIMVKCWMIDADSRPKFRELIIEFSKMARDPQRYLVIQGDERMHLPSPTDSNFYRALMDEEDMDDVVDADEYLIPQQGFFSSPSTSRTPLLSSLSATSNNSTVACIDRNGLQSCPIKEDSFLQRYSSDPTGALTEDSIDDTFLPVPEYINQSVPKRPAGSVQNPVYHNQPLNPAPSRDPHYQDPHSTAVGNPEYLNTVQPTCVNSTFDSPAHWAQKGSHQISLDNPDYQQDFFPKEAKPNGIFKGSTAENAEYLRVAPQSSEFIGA
Method: as §1

[1] = biological target: EGFR T790M/L858R kinase domain (Homo sapiens (Human), UniProt P00533, L858R/T790M); assay: EGFR enzymatic assay, TR-FRET, EGFR T790M/L858R
EGFR T790M/L858R kinase domain, sequence (P00533 669-1210 T790M/L858R): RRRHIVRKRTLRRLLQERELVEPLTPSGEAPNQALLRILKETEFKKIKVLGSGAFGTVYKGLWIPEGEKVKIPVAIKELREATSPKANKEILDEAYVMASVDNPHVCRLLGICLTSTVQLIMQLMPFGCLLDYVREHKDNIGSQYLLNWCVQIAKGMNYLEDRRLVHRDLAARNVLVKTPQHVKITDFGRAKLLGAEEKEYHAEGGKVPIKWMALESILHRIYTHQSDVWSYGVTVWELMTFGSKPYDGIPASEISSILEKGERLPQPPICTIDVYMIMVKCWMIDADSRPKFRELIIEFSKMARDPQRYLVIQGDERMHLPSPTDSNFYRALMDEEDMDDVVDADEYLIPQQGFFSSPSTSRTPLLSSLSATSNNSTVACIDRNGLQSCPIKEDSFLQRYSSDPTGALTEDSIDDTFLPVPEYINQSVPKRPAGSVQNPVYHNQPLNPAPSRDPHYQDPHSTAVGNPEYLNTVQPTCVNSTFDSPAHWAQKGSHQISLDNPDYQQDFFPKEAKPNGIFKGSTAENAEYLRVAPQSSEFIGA
Method: as §1

CN(C)[C@H]1CCN(Cc2ccc(C(=O)N[C@@H]3[C@H]4Oc5ccc(Oc6ccnc7c6CCC(=O)N7)cc5[C@@H]34)cc2C(F)(F)F)C1 [Compound 1.9]
IC50 (wild type B-Raf): 32 nM

O=C1CCc2c(Oc3ccc4c(c3)[C@H]3[C@H](NC(=O)c5ccc(CN6CCn7c(nnc7C(F)(F)F)C6)c(C(F)(F)F)c5)[C@H]3O4)ccnc2N1 [Compound 1.14]
IC50 (wild type B-Raf): 20 nM
IC50 (B-Raf (V600E)): 20 nM
IC50 (C-Raf (Y340D/Y341D)): 1.7 nM

CN(C)C1CCN(Cc2ccc(C(=O)N[C@@H]3[C@H]4Oc5ccc(Oc6ccnc7c6CCC(=O)N7)cc5[C@@H]34)cc2C(F)(F)F)CC1 [Compound 1.20]
IC50 (wild type B-Raf): 16 nM

O=C1CCc2c(Oc3ccc4c(c3)[C@H]3[C@H](NC(=O)c5ccc(F)cc5)[C@H]3O4)ccnc2N1 [Compound 1.36]
IC50 (WT EGFR kinase domain): 93 nM
Braf-WT Km ATP, % at 100 nM (wild type B-Raf): 96% at 100 nM
IC50 (EGFR L858R kinase domain): 60 nM
IC50 (B-Raf (V600E)): 1.4 nM
IC50 [1]: 538 nM

Cc1cccc(F)c1C(=O)N[C@@H]1[C@H]2Oc3ccc(Oc4ccnc5c4CCC(=O)N5)cc3[C@@H]12 [Compound 1.37]
IC50 (WT EGFR kinase domain): 1240 nM
Braf-WT Km ATP, % at 100 nM (wild type B-Raf): 80% at 100 nM
IC50 (EGFR L858R kinase domain): 529 nM
IC50 (B-Raf (V600E)): 7.5 nM
IC50 [1]: > 5000 nM

O=C1CCc2c(Oc3ccc4c(c3)[C@H]3[C@H](NC(=O)c5ccccc5F)[C@H]3O4)ccnc2N1 [Compound 1.38]
IC50 (WT EGFR kinase domain): 425 nM
Braf-WT Km ATP, % at 100 nM (wild type B-Raf): 84% at 100 nM
IC50 (EGFR L858R kinase domain): 79 nM
IC50 (B-Raf (V600E)): 4.7 nM
IC50 [1]: 3190 nM

O=C1CCc2c(Oc3ccc4c(c3)[C@H]3[C@H](NC(=O)c5ccc(F)c(F)c5)[C@H]3O4)ccnc2N1 [Compound 1.41]
IC50 (WT EGFR kinase domain): 59 nM
Braf-WT Km ATP, % at 100 nM (wild type B-Raf): 100% at 100 nM
IC50 (EGFR L858R kinase domain): 29 nM
IC50 (B-Raf (V600E)): 1.2 nM
IC50 [1]: 648 nM

O=C1CCc2c(Oc3ccc4c(c3)[C@H]3[C@H](NC(=O)c5ccc(C(F)(F)F)c(F)c5)[C@H]3O4)ccnc2N1 [Compound 1.42]
Braf-WT Km ATP, % at 100 nM (wild type B-Raf): 102% at 100 nM
IC50 (B-Raf (V600E)): 9.2 nM

O=C1CCc2c(Oc3ccc4c(c3)[C@H]3[C@H](NC(=O)c5ccccc5C(F)(F)F)[C@H]3O4)ccnc2N1 [Compound 1.44]
IC50 (WT EGFR kinase domain): 243 nM
Braf-WT Km ATP, % at 100 nM (wild type B-Raf): 93% at 100 nM
IC50 (EGFR L858R kinase domain): 63 nM
IC50 (B-Raf (V600E)): 4.8 nM
IC50 [1]: > 5000 nM

O=C1CCc2c(Oc3ccc4c(c3)[C@H]3[C@H](NC(=O)c5cc(C(F)(F)F)ccn5)[C@H]3O4)ccnc2N1 [Compound 1.45, N-((1S,1aS,6bS)-5-((7-oxo-5,6,7,8-tetrahydro-1,8-naphthyridin-4-yl)oxy)-1a,6b-dihydro-1H-cyclopropa[b]benzofuran-1-yl)-4-(trifluoromethyl)picolinamide]
IC50 (WT EGFR kinase domain): 8.5 nM
Braf-WT Km ATP, % at 100 nM (wild type B-Raf): 101% at 100 nM
IC50 (EGFR L858R kinase domain): 5.4 nM
IC50 (B-Raf (V600E)): 3.1 nM
IC50 [1]: 104 nM

N#CC1(c2cccc(C(=O)N[C@@H]3[C@H]4Oc5ccc(Oc6ccnc7c6CCC(=O)N7)cc5[C@@H]34)c2)CC1 [Compound 1.46, 3-(1-cyanocyclopropyl)-N-((1S,1aS,6bS)-5-((7-oxo-5,6,7,8-tetrahydro-1,8-naphthyridin-4-yl)oxy)-1a,6b-dihydro-1H-cyclopropa[b]benzofuran-1-yl)benzamide]
IC50 (WT EGFR kinase domain): 85 nM
IC50 (wild type B-Raf): 1.4 nM
IC50 (EGFR L858R kinase domain): 52 nM
IC50 (B-Raf (V600E)): 2.5 nM
IC50 [1]: 316 nM

CN1CCC(Oc2ccc(C(=O)N[C@@H]3[C@H]4Oc5ccc(Oc6ccnc7c6CCC(=O)N7)cc5[C@@H]34)cc2C(F)(F)F)CC1 [Compound 1.51, 4-((1-methylpiperidin-4-yl)oxy)-N-((1S,1aS,6bS)-5-((7-oxo-5,6,7,8-tetrahydro-1,8-naphthyridin-4-yl)oxy)-1a,6b-dihydro-1H-cyclopropa[b]benzofuran-1-yl)-3-(trifluoromethyl)benzamide]
IC50 (wild type B-Raf): 9.8 nM
IC50 (B-Raf (V600E)): 14 nM
IC50 (C-Raf (Y340D/Y341D)): 1.61 nM

CN1CCN(CCOc2ccc(C(=O)N[C@@H]3[C@H]4Oc5ccc(Oc6ccnc7c6CCC(=O)N7)cc5[C@@H]34)cc2C(F)(F)F)CC1 [Compound 1.52]
IC50 (wild type B-Raf): 15 nM

O=C(/C=C/c1cccc(C(F)(F)F)c1)N[C@@H]1[C@H]2Oc3ccc(Oc4ccnc5c4CCC(=O)N5)cc3[C@@H]12 [Compound 1.53]
IC50 (WT EGFR kinase domain): 678 nM
Braf-WT Km ATP, % at 100 nM (wild type B-Raf): 86% at 100 nM
IC50 (EGFR L858R kinase domain): 68 nM
IC50 (B-Raf (V600E)): 16 nM
IC50 [1]: 1140 nM

O=C1CCc2c(Oc3ccc4c(c3)[C@H]3[C@H](NC(=O)c5ccc(-c6ccccc6)o5)[C@H]3O4)ccnc2N1 [Compound 1.54]
IC50 (WT EGFR kinase domain): 326 nM
Braf-WT Km ATP, % at 100 nM (wild type B-Raf): 93% at 100 nM
IC50 (EGFR L858R kinase domain): 152 nM
IC50 (B-Raf (V600E)): 4.9 nM
IC50 [1]: 757 nM

CCN1CCN(Cc2ccc(C(=O)N[C@@H]3[C@H]4Oc5ccc(Oc6ccnc7c6CNC(=O)N7)cc5[C@@H]34)cc2C(F)(F)F)CC1 [Compound 2.6, 4-((4-ethylpiperazin-1-yl)methyl)-N-((1S,1aS,6bS)-5-((2-oxo-1,2,3,4-tetrahydropyrido[2,3-d]pyrimidin-5-yl)oxy)-1a,6b-dihydro-1H-cyclopropa[b]benzofuran-1-yl)-3-(trifluoromethyl)benzamide]
IC50 (WT EGFR kinase domain): 0.43 nM
IC50 (EGFR L858R kinase domain): 0.085 nM
IC50 (B-Raf (V600E)): 17 nM
IC50 [1]: 0.076 nM

CN1CCN(Cc2ccc(C(=O)N[C@@H]3[C@H]4Oc5ccc(Oc6ccnc7c6CNC(=O)N7)cc5[C@@H]34)cc2C(F)(F)F)CC1 [Compound 2.7]
IC50 (WT EGFR kinase domain): 0.67 nM
IC50 (EGFR L858R kinase domain): 0.15 nM
IC50 (B-Raf (V600E)): 16 nM
IC50 [1]: 0.084 nM

N[C@@H]1[C@H]2Oc3ccc(Oc4ccnc5c4CCC(=O)N5)cc3[C@@H]12 [Intermediate I, 5-(((1S,1aS,6bS)-1-amino-1a,6b-dihydro-1H-cyclopropa[b]benzofuran-5-yl)oxy)-3,4-dihydro-1,8-naphthyridin-2(1H)-one]
Braf-WT Km ATP, % at 100 nM (wild type B-Raf): −2% at 100 nM
IC50 (B-Raf (V600E)): 2840 nM
IC50 (C-Raf (Y340D/Y341D)): 277 nM
